{"source": "ChEMBL document CHEMBL1126702", "about": "“Modeling the anticancer action of some retinoid compounds by making use of the OASIS method” (J Med Chem, 1993)", "key": {"[1]": {"assay": "Partition coefficient (logP)", "type": "physicochemical", "conditions": "octanol/water"}, "[2]": {"system": "Cricetinae gen. sp.", "assay": "Tested for anticancer activity against hamster tracheal cells", "type": "functional, Trachea"}}, "data": [{"smiles": "CC(=O)C1=C(/C=C/C(C)=C/C=C/C(C)=C/C=O)C(C)(C)CC1", "values": [{"measurement": "logP", "setting": "[1]; read-out: logP", "value": 6.63}, {"measurement": "-Log ED50", "setting": "[2]", "value": 9.3}]}, {"smiles": "CCC(=O)/C=C(C)/C=C/C=C(C)/C=C/c1c(C)cc(O)c(C)c1C", "values": [{"measurement": "logP", "setting": "[1]; read-out: logP", "value": 7.34}, {"measurement": "-Log ED50", "setting": "[2]", "value": 7}]}, {"smiles": "CC(=O)/C=C(C)/C=C/C=C(C)/C=C/C1(O)C(C)(C)CCCC1(C)O", "note": "(stereo not drawn)", "values": [{"measurement": "logP", "setting": "[1]; read-out: logP", "value": 4.2}, {"measurement": "-Log ED50", "setting": "[2]", "value": 6.7}]}, {"smiles": "CC(=O)/C=C(C)/C=C/C=C(C)/C=C/C12OC1(C)CCCC2(C)C", "note": "(stereo not drawn)", "values": [{"measurement": "logP", "setting": "[1]; read-out: logP", "value": 5.08}, {"measurement": "-Log ED50", "setting": "[2]", "value": 8.52}]}, {"smiles": "CC1=C(/C=C/C(C)=C/C=C/C(C)=C/C=O)C(C)(C)CCC1=O", "values": [{"measurement": "logP", "setting": "[1]; read-out: logP", "value": 6.63}, {"measurement": "-Log ED50", "setting": "[2]", "value": 9.15}]}, {"smiles": "COc1cc(C)c(/C=C/C(C)=C/C=C/C(C)=C/C=O)c(C)c1C", "values": [{"measurement": "logP", "setting": "[1]; read-out: logP", "value": 6.57}, {"measurement": "-Log ED50", "setting": "[2]", "value": 8.3}]}, {"smiles": "CC(/C=C/C=C(C)/C=C/c1ccco1)=C\\C=O", "values": [{"measurement": "logP", "setting": "[1]; read-out: logP", "value": 3.69}, {"measurement": "-Log ED50", "setting": "[2]", "value": 6}]}, {"smiles": "CCC(=O)/C=C(C)/C=C/C=C(C)/C=C/c1c(C)cc(OC)c(C)c1C", "values": [{"measurement": "logP", "setting": "[1]; read-out: logP", "value": 7.22}, {"measurement": "-Log ED50", "setting": "[2]", "value": 7.7}]}, {"smiles": "COC(C)C1=C(/C=C/C(C)=C/C=C/C(C)=C/C=O)C(C)(C)CC1", "note": "(stereo not drawn)", "values": [{"measurement": "logP", "setting": "[1]; read-out: logP", "value": 6.58}, {"measurement": "-Log ED50", "setting": "[2]", "value": 9.7}]}, {"smiles": "CC(/C=C/C=C(C)/C=C/c1ccccc1)=C\\C=O", "values": [{"measurement": "logP", "setting": "[1]; read-out: logP", "value": 5.37}, {"measurement": "-Log ED50", "setting": "[2]", "value": 6}]}, {"smiles": "CC(/C=C/C=C(C)/C=C/c1cccnc1)=C\\C=O", "values": [{"measurement": "logP", "setting": "[1]; read-out: logP", "value": 4.69}, {"measurement": "-Log ED50", "setting": "[2]", "value": 6.52}]}, {"smiles": "CC(/C=C/C=C(C)/C=C/C1C(C)CCCC1(C)C)=C\\C=O", "note": "(stereo not drawn)", "values": [{"measurement": "logP", "setting": "[1]; read-out: logP", "value": 7.29}, {"measurement": "-Log ED50", "setting": "[2]", "value": "<9"}]}, {"smiles": "CCC(=O)/C=C(C)/C=C/C=C(C)/C=C/C1=C(C)CCCC1(C)C", "values": [{"measurement": "logP", "setting": "[1]; read-out: logP", "value": 8.12}, {"measurement": "-Log ED50", "setting": "[2]", "value": 9.3}]}, {"smiles": "CC(=O)/C=C(C)/C=C/C=C(C)/C=C/C1=C(C)CCCC1(C)C", "values": [{"measurement": "logP", "setting": "[1]; read-out: logP", "value": 7.63}, {"measurement": "-Log ED50", "setting": "[2]", "value": 9.52}]}, {"smiles": "CC1=C(/C=C/C(C)=C/C=C/C(C)=C/C=O)C(C)(C)CCC1O", "note": "(stereo not drawn)", "values": [{"measurement": "logP", "setting": "[1]; read-out: logP", "value": 6.1}, {"measurement": "-Log ED50", "setting": "[2]", "value": 9.15}]}, {"smiles": "CC(/C=C/C=C(C)/C=C/c1ccsc1)=C\\C=O", "values": [{"measurement": "logP", "setting": "[1]; read-out: logP", "value": 4.13}, {"measurement": "-Log ED50", "setting": "[2]", "value": ">8"}]}, {"smiles": "CC(/C=C/C=C(C)/C=C/C12OC1(C)CCCC2(C)C)=C\\C=O", "note": "(stereo not drawn)", "values": [{"measurement": "logP", "setting": "[1]; read-out: logP", "value": 4.91}, {"measurement": "-Log ED50", "setting": "[2]", "value": 8.7}]}, {"smiles": "CC1=CCCC(C)(C)C1/C=C/C(C)=C/C=C/C(C)=C/C=O", "note": "(stereo in doubt; 16)", "values": [{"measurement": "logP", "setting": "[1]", "value": 7.09}, {"measurement": "-Log ED50", "setting": "[2]", "value": "<8"}]}, {"smiles": "CC1=CCCC(C)(C)C1/C=C/C(C)=C/C=C/C(C)=C/C=O", "note": "(stereo in doubt; 19)", "values": [{"measurement": "logP", "setting": "[1]; read-out: logP", "value": 7.47}, {"measurement": "-Log ED50", "setting": "[2]", "value": 10.52}]}]}
